# Source: article PMC4919066 (PLoS Pathogens, 2016)
# Counter-ions that a name gives are not always drawn.
# Key:
# in vivo = assay: in vivo; design: species or system BALB/c mice
# Description: The dosing solution was prepared in saline with a dosing volume of 10 mL/kg. Blood and tissue samples including liver, lung and spleen were collected at 0, 0.083, 0.25, 0.5, 0.75, 1, 2, 3, 4, 7, 24, 30, 48, 72 and 96 hr. […] Pharmacokinetic parameters (Cmax, Tmax, AUC and t1/2) were calculated with a non-compartmental approach using the Pharsight WinNonLin software (Ver. 6.4). The experimental procedures were approved by the Animal Care and Use Committee of Division of Veterinary Resources, NIH.
# RPS14 = RPS14 (Homo sapiens, UniProt P62263); assay: RPS14 nuclear localization, confocal microscopy; type: cell-based; conditions: emetine 75 nM, infected high-density cells
# Description: Cells were fixed with 3.7% paraformaldehyde for 20 min at room temperature, permeabilized with ice cold methanol for 10 min at -20°C and blocked with 5% bovine serum albumin in 0.5% Tween-20 for 20 min at room temperature. Cells were incubated with primary antibodies at 4°C overnight, washed and incubated with fluorescently-labeled secondary antibodies for 2 h at 37°C. Fluorescence microscopy was performed using a confocal laser scanning microscope (Nikon EZ C1). All images were captured at 60X magnification and processed under identical conditions with constant parameters (including scan speed and excitation and emission wavelengths) using Nikon EZ C1 software. Data analysis (percent nuclear localization) was performed by NIS-Elements software (Nikon) for a minimum of 40 cells in the high-density and 25 cells in the low-density samples from two fields per condition.
# [1] = 0.083 h after single oral 0.1 mg/kg, BALB/c mice
# [2] = 0.25 h after single oral 0.1 mg/kg, BALB/c mice
# [3] = 0.5 h after single oral 0.1 mg/kg, BALB/c mice
# [4] = 1 h after single oral 0.1 mg/kg, BALB/c mice
# [5] = 2 h after single oral 0.1 mg/kg, BALB/c mice
# [6] = 3 h after single oral 0.1 mg/kg, BALB/c mice
# [7] = 4 h after single oral 0.1 mg/kg, BALB/c mice
# [8] = 7 h after single oral 0.1 mg/kg, BALB/c mice
# [9] = 24 h after single oral 0.1 mg/kg, BALB/c mice
# [10] = 30 h after single oral 0.1 mg/kg, BALB/c mice
# [11] = 48 h after single oral 0.1 mg/kg, BALB/c mice
# [12] = 72 h after single oral 0.1 mg/kg, BALB/c mice
# [13] = 96 h after single oral 0.1 mg/kg, BALB/c mice
smiles,measurement,setting,value
"CC[C@H]1CN2CCc3cc(OC)c(OC)cc3[C@@H]2C[C@@H]1C[C@H]1NCCc2cc(OC)c(OC)cc21 [emetine, emetine dihydrochloride hydrate]",LIVER Conc.,in vivo; [1],0.007 µmol/kg
same,LIVER Mean Conc.,in vivo; [1],3.59 ng/g
same,LUNG Conc.,in vivo; [1],0.002 µmol/kg
same,LUNG Mean Conc.,in vivo; [1],1.07 ng/g
same,LIVER Conc.,in vivo; [2],0.013 µmol/kg
same,LIVER Mean Conc.,in vivo; [2],6.18 ng/g
same,LUNG Conc.,in vivo; [2],0.003 µmol/kg
same,LUNG Mean Conc.,in vivo; [2],1.49 ng/g
same,LIVER Conc.,in vivo; [3],0.037 µmol/kg
same,LIVER Mean Conc.,in vivo; [3],17.7 ng/g
same,LUNG Conc.,in vivo; [3],0.006 µmol/kg
same,LUNG Mean Conc.,in vivo; [3],2.90 ng/g
same,SPLEEN Conc.,in vivo; [3],0.002 µmol/kg
same,SPLEEN Mean Conc.,in vivo; [3],1.12 ng/g
same,LIVER Conc.,in vivo; [4],0.117 µmol/kg
same,LIVER Mean Conc.,in vivo; [4],56.5 ng/g
same,LUNG Conc.,in vivo; [4],0.017 µmol/kg
same,LUNG Mean Conc.,in vivo; [4],8.11 ng/g
same,SPLEEN Conc.,in vivo; [4],0.012 µmol/kg
same,SPLEEN Mean Conc.,in vivo; [4],5.60 ng/g
same,LIVER Conc.,in vivo; [5],0.192 µmol/kg
same,LIVER Mean Conc.,in vivo; [5],92.2 ng/g
same,LUNG Conc.,in vivo; [5],0.020 µmol/kg
same,LUNG Mean Conc.,in vivo; [5],9.70 ng/g
same,SPLEEN Conc.,in vivo; [5],0.018 µmol/kg
same,SPLEEN Mean Conc.,in vivo; [5],8.81 ng/g
same,LIVER Conc.,in vivo; [6],0.316 µmol/kg
same,LIVER Mean Conc.,in vivo; [6],152 ng/g
same,LUNG Conc.,in vivo; [6],0.037 µmol/kg
same,LUNG Mean Conc.,in vivo; [6],17.9 ng/g
same,SPLEEN Conc.,in vivo; [6],0.032 µmol/kg
same,SPLEEN Mean Conc.,in vivo; [6],15.3 ng/g
same,LIVER Conc.,in vivo; [7],0.437 µmol/kg
same,LIVER Mean Conc.,in vivo; [7],210 ng/g
same,LUNG Conc.,in vivo; [7],0.071 µmol/kg
same,LUNG Mean Conc.,in vivo; [7],34.2 ng/g
same,SPLEEN Conc.,in vivo; [7],0.064 µmol/kg
same,SPLEEN Mean Conc.,in vivo; [7],30.6 ng/g
same,LIVER Conc.,in vivo; [8],0.527 µmol/kg
same,LIVER Mean Conc.,in vivo; [8],253 ng/g
same,LUNG Conc.,in vivo; [8],0.097 µmol/kg
same,LUNG Mean Conc.,in vivo; [8],46.6 ng/g
same,SPLEEN Conc.,in vivo; [8],0.093 µmol/kg
same,SPLEEN Mean Conc.,in vivo; [8],44.9 ng/g
same,LIVER Conc.,in vivo; [9],0.193 µmol/kg
same,LIVER Mean Conc.,in vivo; [9],93.0 ng/g
same,LUNG Conc.,in vivo; [9],0.138 µmol/kg
same,LUNG Mean Conc.,in vivo; [9],66.1 ng/g
same,SPLEEN Conc.,in vivo; [9],0.175 µmol/kg
same,SPLEEN Mean Conc.,in vivo; [9],84.3 ng/g
same,LIVER Conc.,in vivo; [10],0.174 µmol/kg
same,LIVER Mean Conc.,in vivo; [10],83.6 ng/g
same,LUNG Conc.,in vivo; [10],0.133 µmol/kg
same,LUNG Mean Conc.,in vivo; [10],64.1 ng/g
same,SPLEEN Conc.,in vivo; [10],0.193 µmol/kg
same,SPLEEN Mean Conc.,in vivo; [10],92.5 ng/g
same,LIVER Conc.,in vivo; [11],0.073 µmol/kg
same,LIVER Mean Conc.,in vivo; [11],34.9 ng/g
same,LUNG Conc.,in vivo; [11],0.078 µmol/kg
same,LUNG Mean Conc.,in vivo; [11],37.4 ng/g
same,SPLEEN Conc.,in vivo; [11],0.139 µmol/kg
same,SPLEEN Mean Conc.,in vivo; [11],66.6 ng/g
same,LIVER Conc.,in vivo; [12],0.044 µmol/kg
same,LIVER Mean Conc.,in vivo; [12],21.2 ng/g
same,LUNG Conc.,in vivo; [12],0.049 µmol/kg
same,LUNG Mean Conc.,in vivo; [12],23.7 ng/g
same,SPLEEN Conc.,in vivo; [12],0.094 µmol/kg
same,SPLEEN Mean Conc.,in vivo; [12],45.2 ng/g
same,LIVER Conc.,in vivo; [13],0.028 µmol/kg
same,LIVER Mean Conc.,in vivo; [13],13.5 ng/g
same,LUNG Conc.,in vivo; [13],0.030 µmol/kg
same,LUNG Mean Conc.,in vivo; [13],14.3 ng/g
same,SPLEEN Conc.,in vivo; [13],0.058 µmol/kg
same,SPLEEN Mean Conc.,in vivo; [13],28.1 ng/g
same,half-life,"in vivo; male, mouse, in vivo, single oral 0.1 mg/kg, BALB/c mice, read-out: calculated half-life (converted)",35 h
same,plasma concentrations,"in vivo; single oral 0.1 mg/kg, male BALB/c mice, UPLC-MS/MS",mostly below the level limit of quantification
same,nuclear localization of RPS14,RPS14; 24 hpi,66%
same,nuclear localization of RPS14,RPS14; 72 hpi,11%
